Laboratory results taken from publication PMC6930675, “Discovery and Characterisation of Dual Inhibitors of Tryptophan 2,3-Dioxygenase (TDO2) and Indoleamine 2,3-Dioxygenase 1 (IDO1) Using Virtual Screening” (Molecules, 2019).
“And” between values parts separate entries of the source, which are not always exact repeats. Equal entries are not always repeated. Blank lines part the entries; values can stand above or below the compound they belong to.

How the values were obtained:
TDO2 = tested on: TDO2; set-up: method as in PMID 27096472, PMID 28105265, PMID 26348881, PMID 22616902; conditions: cited from earlier work; for IC50: test library, read-out: IC50 (TDO2 active compounds of the test library)
IDO1 (SKOV3 cells) = target: T1, IDO1 (SKOV3 cells) (Homo sapiens, UniProt P14902); assay: Cell based kynurenine assay in SKOV3 ovarian line (IDO1 expressor); conditions: for IC50: SKOV3 (IDO1), 18 h, read-out: IC50, inhibition of kynurenine secretion
T1 construct: identify cell lines endogenously expressing only IDO1, only TDO2, and both enzymes simultaneously; endogenous in cells; host or cells: SKOV3 ovarian cancer cell line
Experimental: (§1) Breast cancer cell lines MCF7, MDA-MB-231, BT549, Hs578T; ovarian cell line SKOV3; glioblastoma cell line A172 and lung cancer cell line H460 were grown in α-MEMGibco, Grand Island, NY, USA; ThermoFisher catalogue number 12000022) containing 5% foetal calf serum (Moregate Biotech, Hamilton, New Zealand), insulin/transferrin/selenium supplement (Roche, Ref-11074547001), added according to the manufacturer’s instructions, as well as penicillin/streptomycin (100 U/mL and 100 μg/mL, respectively). The amount of kynurenine produced by the cells was measured as described previously. Briefly, a well of a 96-well plate received 3.7 × 10^4 cells which were subsequently cultured with the addition of 50 μM ([…] and SKOV3 cells) or 100 μM (A172 cells) of L-tryptophan (Sigma-Aldrich, St Louis, MO, USA) with or without test compounds at 37 °C, 5% CO2 for 18 h. The cell number seeded was optimised to produce levels of kynurenine <40% of initial tryptophan to avoid tryptophan starvation and to ensure steady-state IDO1/TDO2 kinetics. Next, the culture supernatants were transferred into a fresh 96-well plate, incubated with trichloroacetic acid (10% final concentration) for 20 min at 60 °C to release kynurenine from the cells and precipitate proteins. After spinning the plates for 20 min at 2500 g, the supernatants were mixed at a 1:1 ratio with 4-(dimethylamino)benzaldehyde (20 mg/mL in acetic acid; Sigma) and the absorbance was read at 480 nm on an EnSpire 2300 Multimode Plate Reader (Perkin-Elmer, Singapore, Singapore). The remaining cells in the 96-well plate received a well-established indicator of cellular metabolic activity WST-1 (Roche Diagnostics Cat No 05015944, Basel, Switzerland; 10% diluted in culture media). After 1 h of incubation at 37 °C, the absorbance was measured at 440 nm. WST-1 is reduced on the outer membrane of viable cells to a soluble formazan by reducing equivalents such as NAD(P)H. The absorbance measured at 440 nm indicates the number of metabolically active cells in the culture and represents a surrogate marker of cell viability.
(§2) All experiments were repeated independently at least twice in technical quadruplicates. Calculations and graph plotting were performed in Prism (v8, 2018; GraphPad software, San Diego, CA, USA) and R computing environment (v3.5.3, 2019, 64-bit, Vienna, Austria). IC50 of the compounds in cellular enzymatic activity compared to untreated control cells was determined by fitting data to an equation f(x) = A + B/(1 + (IC50/X)^HILL) in Prism; where A is the minimum and B is the maximum of the curve, HILL is the slope of the curve and X is the compound concentration.

[1] = tested on: IDO1/TDO2 (SKOV3 and BT549 cell lines); assay: Single-concentration test of virtual hits for inhibition of kynurenine secretion in SKOV3 and BT549; format: cell-based, human; conditions: 20 µM
Experimental: as §1, with “Next, the culture supernatants were transferred into a fresh 96-well plate, incubated with trichloroacetic acid (10% final concentration) for 20 min at 60 °C to release kynurenine from the cells and precipitate proteins.” left out, “The remaining cells in the 96-well plate received a well-established indicator of cellular metabolic activity WST-1 (Roche Diagnostics Cat No 05015944, Basel, Switzerland; 10% diluted in culture media).” left out
as §2, with “Calculations and graph plotting were performed in Prism (v8, 2018; GraphPad software, San Diego, CA, USA) and R computing environment (v3.5.3, 2019, 64-bit, Vienna, Austria).” left out

IDO1/TDO2 (BT549 cells) = assay: Cell based kynurenine assay in BT549 breast line (dual IDO1/TDO2 expressor); set-up: species or system human
Experimental: (§3) Breast cancer cell lines MCF7, MDA-MB-231, BT549, Hs578T; ovarian cell line SKOV3; glioblastoma cell line A172 and lung cancer cell line H460 were grown in α-MEMGibco, Grand Island, NY, USA; ThermoFisher catalogue number 12000022) containing 5% foetal calf serum (Moregate Biotech, Hamilton, New Zealand), insulin/transferrin/selenium supplement (Roche, Ref-11074547001), added according to the manufacturer’s instructions, as well as penicillin/streptomycin (100 U/mL and 100 μg/mL, respectively). The amount of kynurenine produced by the cells was measured as described previously. […] After spinning the plates for 20 min at 2500 g, the supernatants were mixed at a 1:1 ratio with 4-(dimethylamino)benzaldehyde (20 mg/mL in acetic acid; Sigma) and the absorbance was read at 480 nm on an EnSpire 2300 Multimode Plate Reader (Perkin-Elmer, Singapore, Singapore). […] After 1 h of incubation at 37 °C, the absorbance was measured at 440 nm. WST-1 is reduced on the outer membrane of viable cells to a soluble formazan by reducing equivalents such as NAD(P)H. The absorbance measured at 440 nm indicates the number of metabolically active cells in the culture and represents a surrogate marker of cell viability. […]

[2] = tested on: BT549 and SKOV3 cell lines; assay: WST-1 assay of cellular metabolic activity / cell viability; format: cell-based, human; conditions: 20 µM; asterisks in Figure 6A
Experimental: Breast cancer cell lines MCF7, MDA-MB-231, BT549, Hs578T; ovarian cell line SKOV3; glioblastoma cell line A172 and lung cancer cell line H460 were grown in α-MEMGibco, Grand Island, NY, USA; ThermoFisher catalogue number 12000022) containing 5% foetal calf serum (Moregate Biotech, Hamilton, New Zealand), insulin/transferrin/selenium supplement (Roche, Ref-11074547001), added according to the manufacturer’s instructions, as well as penicillin/streptomycin (100 U/mL and 100 μg/mL, respectively). The amount of kynurenine produced by the cells was measured as described previously. […] After spinning the plates for 20 min at 2500 g, the supernatants were mixed at a 1:1 ratio with 4-(dimethylamino)benzaldehyde (20 mg/mL in acetic acid; Sigma) and the absorbance was read at 480 nm on an EnSpire 2300 Multimode Plate Reader (Perkin-Elmer, Singapore, Singapore). […] After 1 h of incubation at 37 °C, the absorbance was measured at 440 nm. WST-1 is reduced on the outer membrane of viable cells to a soluble formazan by reducing equivalents such as NAD(P)H. The absorbance measured at 440 nm indicates the number of metabolically active cells in the culture and represents a surrogate marker of cell viability.

TDO2 (A172 cells) = target: T2, TDO2 (A172 cells) (Homo sapiens, UniProt P48775); assay: Cell based kynurenine assay in A172 glioblastoma line (TDO2 expressor); conditions: 18 h, read-out: IC50, inhibition of kynurenine secretion
T2 construct: identify cell lines endogenously expressing only IDO1, only TDO2, and both enzymes simultaneously; endogenous in cells; host or cells: A172 glioblastoma cell line
Experimental: as §3

T1 sequence (P14902 whole entry): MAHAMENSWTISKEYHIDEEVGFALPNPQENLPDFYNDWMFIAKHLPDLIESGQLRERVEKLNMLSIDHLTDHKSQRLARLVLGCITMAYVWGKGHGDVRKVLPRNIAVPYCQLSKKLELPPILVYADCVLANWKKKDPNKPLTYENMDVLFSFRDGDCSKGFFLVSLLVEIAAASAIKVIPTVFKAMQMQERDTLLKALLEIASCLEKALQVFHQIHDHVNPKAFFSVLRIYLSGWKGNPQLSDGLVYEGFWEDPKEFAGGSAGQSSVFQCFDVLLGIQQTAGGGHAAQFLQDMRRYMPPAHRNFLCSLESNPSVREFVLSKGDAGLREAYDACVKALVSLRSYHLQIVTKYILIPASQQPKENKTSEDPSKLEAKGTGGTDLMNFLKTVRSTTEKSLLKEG
T2 sequence (P48775 whole entry): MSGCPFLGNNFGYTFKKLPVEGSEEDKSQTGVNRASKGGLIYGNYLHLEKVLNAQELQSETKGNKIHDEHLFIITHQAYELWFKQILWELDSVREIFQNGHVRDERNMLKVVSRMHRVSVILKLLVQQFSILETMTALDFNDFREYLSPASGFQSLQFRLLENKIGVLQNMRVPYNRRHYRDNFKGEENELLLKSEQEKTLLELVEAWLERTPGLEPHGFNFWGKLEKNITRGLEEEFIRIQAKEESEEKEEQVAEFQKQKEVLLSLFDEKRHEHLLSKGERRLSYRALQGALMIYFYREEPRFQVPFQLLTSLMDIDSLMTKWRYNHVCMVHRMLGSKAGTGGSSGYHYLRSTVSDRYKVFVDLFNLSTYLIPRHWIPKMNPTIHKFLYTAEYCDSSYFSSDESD

SMILES: CC1c2cc(-c3c[nH]c4cc(F)ccc34)ccc2S(=O)(=O)N1CC(N)=O (centres unmarked) [1a]
IC50 (TDO2): 26 nM

SMILES: C[C@H]1NS(=O)(=O)c2ccc(-c3c[nH]c4cc(F)ccc34)cc21 [1b]
IC50 (TDO2): 27 nM

SMILES: O=S1(=O)NC(CO)c2cc(-c3c[nH]c4cc(F)ccc34)ccc21 (centres unmarked) [1d]
IC50 (TDO2): 43 nM

SMILES: O=C1c2ccccc2C(=O)c2c1nnn2Cc1cccc(C(=O)N2CCOCC2)c1 [1e]
IC50 (TDO2): 48 nM

SMILES: Nc1cccc(-c2c[nH]nn2)c1 [2a]
Activity class in the TDO2 test library (TDO2): inactive

SMILES: Brc1cccc(-c2c[nH]nn2)c1 [2b]
Activity class in the TDO2 test library (TDO2): inactive

SMILES: FC(F)(F)c1cc(-c2c[nH]nn2)ccn1 [2c]
Activity class in the TDO2 test library (TDO2): inactive

SMILES: O=C1Nc2ccccc2/C1=N\Nc1nc2ccccc2s1 [2d]
Activity class in the TDO2 test library (TDO2): inactive

SMILES: O=C(CC1(O)C(=O)Nc2c(Cl)cc(Cl)cc21)c1ccc(Cl)cc1 (centres unmarked) [2e]
Activity class in the TDO2 test library (TDO2): inactive

Inhibition of kynurenine production, in words (IDO1 (SKOV3 cells); SKOV3, at 1 µM): completely inhibited
SMILES: Nc1nonc1/C(=N/O)Nc1ccc(F)c(Cl)c1 [5L]

Effect on kynurenine production, in words (IDO1 (SKOV3 cells); SKOV3): barely affected
SMILES: Fc1ccc2c(/C=C\c3cccnc3)c[nH]c2c1 [680C91]

SMILES: COc1ccccc1C(=O)CC(=O)c1ccc(C)cc1O [TD12]
Inhibition of kynurenine secretion [1]: 50% ± 20

SMILES: Cc1ccc(C(=O)CC(=O)c2ccccc2OC(C)C)c(O)c1 [TD18]
Inhibition of kynurenine secretion [1]: 50% ± 20
IC50 (IDO1 (SKOV3 cells)): 28.9 µM

SMILES: CC1=C(CC(=O)c2sccc2Br)C(=O)c2ccccc2C1=O [TD34]
Inhibition of kynurenine production, in words [1]: inhibited kynurenine production
IC50 (IDO1/TDO2 (BT549 cells); BT549 (IDO1/TDO2), 18 h, read-out: IC50, inhibition of kynurenine secretion): 3.42 µM
Fold higher potency in BT549 than in A172 and SKOV3 (IDO1/TDO2 (BT549 cells); BT549 versus A172 / SKOV3): more than 10 fold
Toxicity to the BT549 and SKOV3 cell lines [2]: absence of cell toxicity
IC50 (TDO2 (A172 cells)): 37.7 µM and ~40 µM
IC50 (IDO1 (SKOV3 cells)): 47.3 µM and ~40 µM
